Measured values from US11464765B2, “Use of an N-substituted pyridyl benzisoselazolone compound” (SHANGHAITECH UNIVERSITY, priority 2020, dated 2022).
Where two headings read alike, the source gives them in different places.

How the values were obtained:
[1] = system: novel coronavirus (SARS-CoV-2); assay: in vitro cell-virus assay; type: cell-based
[2] = human, in vivo; cited from earlier work
[3] = rats; cited from earlier work
[4] = mice; cited from earlier work

## O=c1c2ccccc2[se]n1-c1ccccc1 [ebselen, Ebselen]
[1]; FIG. 4
  replication ability of SARS-CoV-2 in cells: significantly inhibits the replication ability of SARS-CoV-2 in cells
[1]; infected cells, FIG. 3
  cytopathy caused by novel coronavirus infection: can prevent cytopathy caused by novel coronavirus infection
[2]
  clinical safety and tolerability: safe and well tolerated
[3]
  oral lethal dose: > 4600 mg/kg
[4]
  oral lethal dose: > 2150 mg/kg
